Drawing on patent US6780994B2, “Phthalimido arylpiperazines useful in the treatment of benign prostatic hyperplasia” (Ortho-McNeil Pharmaceutical, Inc., priority 1998, dated 2004), this text covers IC50 for one molecule.

The target in one assay is T1, α1b-AR (Homo sapiens, UniProt P35368).
T1 construct: expressed in transfected cells; host or cells: COS cells, pcDNA3 vector, transient DEAE-dextran transfection
T1 sequence (P35368 1-520): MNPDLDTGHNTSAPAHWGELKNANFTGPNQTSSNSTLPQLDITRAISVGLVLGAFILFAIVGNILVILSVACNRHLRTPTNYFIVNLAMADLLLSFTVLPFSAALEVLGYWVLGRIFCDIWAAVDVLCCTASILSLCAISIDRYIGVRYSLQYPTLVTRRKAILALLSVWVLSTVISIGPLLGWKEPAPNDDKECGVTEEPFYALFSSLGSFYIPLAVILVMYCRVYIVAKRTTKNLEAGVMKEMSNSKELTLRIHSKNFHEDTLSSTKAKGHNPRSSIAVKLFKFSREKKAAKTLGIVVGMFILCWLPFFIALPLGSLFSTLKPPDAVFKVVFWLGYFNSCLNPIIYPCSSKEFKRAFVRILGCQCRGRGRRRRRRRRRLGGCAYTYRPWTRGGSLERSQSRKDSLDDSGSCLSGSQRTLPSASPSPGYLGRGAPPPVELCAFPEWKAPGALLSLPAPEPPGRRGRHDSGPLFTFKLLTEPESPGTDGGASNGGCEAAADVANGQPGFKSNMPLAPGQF
Nature of the assay: radioligand ([125I]-HEAT) receptor binding assay, COS cell membranes expressing cloned receptor. The conditions noted are these: [125I]-HEAT 50 pM, 1 hour room temperature. The text has this:
(§1) The first assay tested the ability of compounds of Formula I to bind to membrane bound receptors α1a-AR, α1b-AR and α1d-AR.
(§2) The DNA sequences of the three cloned human α1-AR subtypes have been published. […] We used published DNA sequence information to design primers for use in RT-PCR amplification of each subtype to obtain cloned cDNAs. Human poly A+ RNA was obtained from commercially available sources and included hippocampus and prostate samples, sources which have been cited in the literature. For the primary screen a radioligand binding assay was used which employed membrane preparations from cells expressing the individual cloned receptor cDNAs. Radiolabeled ligands with binding activity on all three subtypes (non-selective) are commercially available ([125I]-HEAT, [3H]-prazosin). Each α1 receptor subtype was cloned from poly A+ RNA by the standard method of reverse transcription-polymerase chain reaction (RT-PCR). The following sources of polyA+ RNA were used for the cloning of the α1 receptor subtypes: α1a-AR, human hippocampus and prostate, α1b-AR, human hippocampus, α1d-AR, human hippocampus. The resulting cDNAs were cloned into the pcDNA3 mammalian expression vector (Invitrogen Corp., San Diego Calif.). Each DNA was sequenced for verification and to detect any possible mutations introduced during the amplification process. Any deviation in sequence from the published consensus for each receptor subtype was corrected by site-directed mutagenesis.
(§3) The three α1-AR subtypes (a, b, d) were transfected into COS cells using a standard DEAE-dextran procedure with a chloroquine shock. In this procedure, each tissue culture dish (100 mm) was inoculated with 3.5×10^6 cells and transfected with 10 μg of DNA. Approximately 72 hours post-transfection, the cells were harvested and COS membranes were prepared. Transfected COS cells from 25 plates (100 mm) were scraped and suspended in 15 mL of TE buffer (50 mM Tris-HCl, 5 mM EDTA, pH 7.4). The suspension was disrupted with a homogenizer. It was then centrifuged at 1000× g for 10 minutes at 4° C. The supernatant was centrifuged at 34,500× g for 20 minutes at 4° C. The pellet was resuspended in 5 mL TNE buffer (50 mM Tris-HCl, 5 mM EDTA, 150 mM NaCl, pH 7.4). The resulting membrane preparation was aliquoted and stored at −70° C. The protein concentration was determined following membrane solubilization with TritonX-100.
(§4) The ability of each compound to bind to each of the α1-AR subtypes was assessed in a receptor binding assay. [125I]-HEAT, a non-selective α1-AR ligand, was used as the radiolabeled ligand. Each well of a 96-well plate received: 140 μL TNE, […] [125I]-HEAT diluted in TNE (50,000 cpm; final concentration 50 pM), 10 μL test compound diluted in DMSO (final concentration 1 pM-10 μM), […] COS cell membrane preparation expressing one of the three α1-AR subtypes (0.05-0.2 mg membrane protein). The plate was incubated for 1 hour at room temperature and the reaction mixtures were filtered through a Packard GF/C Unifilter filter plate. The filter plate was dried for 1 hour in a vacuum oven. Scintillation fluid ([…]) was added to each well, and the filter plate was counted in a Packard Topcount scintillation counter. Data was analyzed using GraphPad Prism software.
(§5) Tables A through D list the IC50 values expressed in nanomolar concentration for select compounds of the invention in all receptor subtypes.

Another assay deals with T2, α1d-AR (Homo sapiens, UniProt P25100).
T2 construct: expressed in transfected cells; host or cells: COS cells, pcDNA3 vector, transient DEAE-dextran transfection
T2 sequence (P25100 1-572): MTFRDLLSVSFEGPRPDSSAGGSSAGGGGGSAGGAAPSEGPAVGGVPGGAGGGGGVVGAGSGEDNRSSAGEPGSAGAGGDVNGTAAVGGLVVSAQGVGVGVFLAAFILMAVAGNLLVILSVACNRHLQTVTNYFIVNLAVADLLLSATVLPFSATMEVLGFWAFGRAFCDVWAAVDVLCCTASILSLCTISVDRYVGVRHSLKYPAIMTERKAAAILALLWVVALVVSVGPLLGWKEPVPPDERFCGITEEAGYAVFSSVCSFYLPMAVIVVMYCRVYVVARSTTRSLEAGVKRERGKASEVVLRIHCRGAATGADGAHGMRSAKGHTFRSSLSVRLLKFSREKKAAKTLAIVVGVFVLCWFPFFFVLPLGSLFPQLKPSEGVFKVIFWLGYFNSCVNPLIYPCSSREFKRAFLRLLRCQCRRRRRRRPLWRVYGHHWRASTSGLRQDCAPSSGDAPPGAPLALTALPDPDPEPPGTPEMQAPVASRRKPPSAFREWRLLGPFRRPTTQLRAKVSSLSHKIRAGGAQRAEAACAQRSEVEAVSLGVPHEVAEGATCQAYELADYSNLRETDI
The description is as above. The conditions noted are these: [125I]-HEAT 50 pM, 1 hour room temperature.
Source text: as §1, §2, §3, §4, §5

One may read the IC50 as the concentration that inhibits the measured activity by half. High values mean lower potency, low ones higher potency. Consider `COc1ccc(N2C(=O)c3ccc(C(=O)NCC(O)CN4CCN(c5ccccc5OC(C)C)CC4)cc3C2=O)cc1` (centres unmarked) [Compound 55], for which the IC50 on α1b-AR is > 2000 nM; at α1d-AR, 51 nM.
